Paper PMC8815882, “Screening the pandemic response box identified benzimidazole carbamates, Olorofim and ravuconazole as promising drug candidates for the treatment of eumycetoma” (PLoS Neglected Tropical Diseases, 2022)
Like-named read-outs stand apart in the source and are kept apart here.

Test system: M. mycetomatis genome strain MM55
Experiment: CLSI M38-A2 based in vitro susceptibility screening (XTT or resazurin), growth at fixed concentration
Type: cell-based, Madurella mycetomatis
Details: Madurella mycetomatis
[1] = 25 uM, mean, read-out: Percentage survival at 25um, 25 uM mean
[2] = 25 uM, replicate A, read-out: Percentage survival at 25um, 25 um A
[3] = 25 uM, replicate B, read-out: Percentage survival at 25um, 25 uM B
[4] = 25 uM, replicate C, read-out: Percentage survival at 25um, 25 uM C
[5] = 100 uM, mean, read-out: Percentage survival at 100um, 100 uM mean
[6] = 100 uM, replicate (first column), read-out: Percentage survival at 100um, 100 uM A
[7] = 100 uM, replicate (second column), read-out: Percentage survival at 100um, 100 uM A
[8] = 100 uM, replicate (third column), read-out: Percentage survival at 100um, 100 uM A
[9] = 100 uM, mean of replicates, read-out: Percentage survival at 100um, 100 uM mean
[10] = 100 uM, replicate 1, read-out: Percentage survival at 100um, 100 uM A
[11] = 100 uM, replicate 2, read-out: Percentage survival at 100um, 100 uM A
[12] = 100 uM, replicate 3, read-out: Percentage survival at 100um, 100 uM A
[13] = read-out: Percentage survival at 25um, 25 uM B
[14] = read-out: Percentage survival at 25um, 25 uM C
[15] = read-out: Percentage survival at 25um, 25 uM mean
[16] = 25 uM, mean of three replicates, read-out: Percentage survival at 25um, 25 uM mean
[17] = 100 uM, first replicate column, read-out: Percentage survival at 100um, 100 uM A
[18] = 100 uM, mean of three replicates, read-out: Percentage survival at 100um, 100 uM mean
[19] = 100 uM, second replicate column, read-out: Percentage survival at 100um, 100 uM A
[20] = 100 uM, third replicate column, read-out: Percentage survival at 100um, 100 uM A
[21] = 25 uM, mean of three, M. mycetomatis MM55, read-out: Percentage survival at 25um, 25 uM mean
[22] = 25 uM, replicate A, M. mycetomatis MM55, read-out: Percentage survival at 25um, 25 um A
[23] = 25 uM, replicate B, M. mycetomatis MM55, read-out: Percentage survival at 25um, 25 uM B
[24] = 25 uM, replicate C, M. mycetomatis MM55, read-out: Percentage survival at 25um, 25 uM C
[25] = 100 uM, mean of three, M. mycetomatis MM55, read-out: Percentage survival at 100um, 100 uM mean
[26] = 100 uM, replicate 1, M. mycetomatis MM55, read-out: Percentage survival at 100um, 100 uM A (first replicate column)
[27] = 100 uM, replicate 2, M. mycetomatis MM55, read-out: Percentage survival at 100um, 100 uM A (second replicate column)
[28] = 100 uM, replicate 3, M. mycetomatis MM55, read-out: Percentage survival at 100um, 100 uM A (third replicate column)

SMILES | activity at 25 µM [1] | activity at 25 µM [2] | activity at 25 µM [3] | activity at 25 µM [4] | activity at 100 µM [5] | activity at 100 µM [6] | activity at 100 µM [7] | activity at 100 µM [8] | activity at 100 µM [9] | activity at 100 µM [10] | activity at 100 µM [11] | activity at 100 µM [12] | other results
OC(Cn1cncn1)(Cn1cncn1)c1ccc(F)cc1F [MMV002337] | 113% | 137% | 52.7% | 150% | 1.38% | -3.44% | 4.59% | 3.01% |  |  |  |  | 
OB1OCc2cc(Cl)ccc21 [MMV1634363] | 33.1% | 51.2% | -4.3% | 52.5% | 61.8% | 40.7% | 85.6% | 59.1% |  |  |  |  | 
NC1(C(=O)O)CCP(=O)(O)CC1 (centres unmarked) [MMV1593538] |  | 56.1% |  |  |  |  |  |  | 65.8% | 72.6% | 66.4% | 58.5% | activity at 25 µM [13]: 68.9%; activity at 25 µM [14]: 67%; activity at 25 µM [15]: 64%
O=S(=O)(Nc1ccc(O)cc1)c1cccc2cccnc12 [MMV251679] |  | 84.9% | 92.9% | 81.3% |  |  |  |  |  |  |  |  | activity at 25 µM [16]: 86.4%; activity at 100 µM [17]: 98.4%; activity at 100 µM [18]: 91.6%; activity at 100 µM [19]: 87.2%; activity at 100 µM [20]: 89.3%
CO/N=C(\C(=O)N[C@@H]1C(=O)N2C(C(=O)OCOC(=O)C(C)(C)C)=C(/C=C\c3scnc3C)CS[C@H]12)c1csc(N)n1 [MMV002560] |  | 84.9% | 78.8% | 186% |  |  |  |  | 77.5% | 72.7% | 83.7% | 76% | activity at 25 µM (25 uM, mean of replicates, read-out: Percentage survival at 25um, 25 uM mean): 117%
O=C(NC12CC3CC(CC(C3)C1)C2)c1cc2ccccc2[nH]1 [MMV1578577] |  | 79.8% |  |  |  |  |  |  | 65.6% | 59.6% | 65.1% | 72.1% | activity at 25 µM [13]: 67.1%; activity at 25 µM [14]: 75.7%; activity at 25 µM [15]: 74.2%
NC(=O)[C@@H]1CC[C@@H]2CN1C(=O)N2OS(=O)(=O)O [MMV1613560] |  |  |  |  |  |  |  |  |  |  |  |  | activity at 25 µM [21]: 88.8%; activity at 25 µM [22]: 94.4%; activity at 25 µM [23]: 88.3%; activity at 25 µM [24]: 83.7%; activity at 100 µM [25]: 85.1%; activity at 100 µM [26]: 93.4%; Percent fungal survival at 100 µM [27]: 67.9%; activity at 100 µM [28]: 94.1%
COc1cc(Cc2cnc(N)nc2N)cc(OC)c1OC [MMV000028] |  |  |  |  |  |  |  |  |  |  |  |  | activity at 25 µM [21]: 83.8%; activity at 25 µM [22]: 93.1%; activity at 25 µM [23]: 86.4%; activity at 25 µM [24]: 71.8%; activity at 100 µM [25]: 77.4%; activity at 100 µM [26]: 78.2%; activity at 100 µM [27]: 74.4%; activity at 100 µM [28]: 79.6%
COc1ccc2c(c1)cc(CNC(=O)c1cc3ccccc3o1)n2CC(=O)O [MMV1581553] | 76.7% | 87.4% | 70.5% | 72.3% | 88.6% | 90% | 85% | 90.9% |  |  |  |  | 
CC#C[C@]1(O)CC[C@H]2[C@@H]3CCC4=CC(=O)CCC4=C3[C@@H](c3ccc(N(C)C)cc3)C[C@@]21C [MMV003297] |  | 90.2% | 94.9% | 76.5% |  |  |  |  |  |  |  |  | activity at 25 µM [16]: 87.2%; activity at 100 µM [17]: 84.5%; activity at 100 µM [18]: 80.3%; activity at 100 µM [19]: 82.6%; activity at 100 µM [20]: 73.8%
